In patent publication US20240327334A1, “Covalent Inhibitors As Antiviral Agents” (Enanta Pharmaceuticals, Inc., priority 2022, published 2024):
Like-named read-outs stand apart in the source and are kept apart here.

Molecular target: SARS-CoV-2 Papain-like (PLpro) protease (Severe acute respiratory syndrome coronavirus 2, UniProt P0DTD1)
Assay: SARS-CoV-2 Papain-like (PLpro) protease biochemical enzyme inhibition assay (ubiquitin-fluorophore substrate, Ub-R110)
[1] = Ub-R110 substrate, run in duplicate, read-out: PLpro IC50

N#CN1CC(CCNC(=O)C(=O)NCc2ccccc2C(=O)NC2(c3cccc4ccccc34)CC2)C1 [Example 433]
IC50 [1]: 1 to 10 µM

COc1cc(C2(NC(=O)c3ccccc3CNC(=O)C(=O)NC[C@@H]3CCN3C#N)CC2)cc2cn(C3CC3)nc12 [Example 516]
IC50 [1]: < 0.1 µM

C#CC(=O)NNC(=O)C(=O)Nc1ccccc1C(=O)N[C@H](C)c1cccc2ccccc12 [Example 26]
IC50 [1]: 1 to 10 µM

N#CCNC(=O)C(=O)NCc1ccccc1C(=O)NC1(c2cc(-c3cn(C4CC4)nn3)cc(C(F)(F)F)c2)CC1 [Example 60]
IC50 [1]: 0.1 to 1 µM

C[C@@H](C#Cc1ccc(C#N)cc1OC(F)(F)F)NC(=O)C(=O)NCc1ccccc1C(=O)NC1(c2ccc3ccccc3c2)CC1 [Example 208]
IC50 [1]: > 10 µM

C[C@@H](NC(=O)c1ccccc1CNC(=O)C(=O)NC/C=C/C(=O)O)c1cccc2ccccc12 [Example 14]
IC50 [1]: 1 to 10 µM

N#Cc1ccc(C#CCNC(=O)C(=O)NCc2ccccc2C(=O)NC2(c3cccc4ccccc34)COC2)c(F)c1 [Example 108]
IC50 [1]: > 10 µM

N#Cc1cccc(C#CCNC(=O)C(=O)NCc2ccccc2C(=O)NC2(c3ccc4ccccc4c3)CC2)c1 [Example 93]
IC50 [1]: > 10 µM

N#CCNC(=O)C(=O)NCc1ccccc1C(=O)NC1(c2cc(C(F)(F)F)ccc2F)CC1 [Example 371]
IC50 [1]: 1 to 10 µM

C[C@@H](NC(=O)c1ccccc1CNC(=O)C(=O)NC1(C#N)CC1)c1cccc2ccccc12 [Example 15]
IC50 [1]: > 10 µM

COC(=O)/C=C/CCNC(=O)C(=O)NCC1C[C@@H]1C(=O)N[C@H](C)c1cccc2ccccc12 (some centres unmarked) [Example 19]
IC50 [1]: > 10 µM

C[Si](C)(C)C#CCNC(=O)C(=O)NCc1ccccc1C(=O)NC1(c2ccc3ccccc3c2)CC1 [Example 202]
IC50: > 10 µM

N#CCNC(=O)C(=O)NCc1ccccc1C(=O)NC1(c2ccc(-c3ccc(F)cc3)cc2)CC1 [Example 542]
IC50 [1]: > 10 µM

C#CCNC(=O)C(=O)NCc1ccccc1C(=O)NC1(c2cccc3c2ccn3C)CC1 [Example 530]
IC50 [1]: 0.1 to 1 µM

N#CCNC(=O)C(=O)NCc1ccccc1C(=O)NC1(c2cccc(-c3ccc(F)cc3)c2F)CC1 [Example 379]
IC50 [1]: < 0.1 µM

N#CCNC(=O)C(=O)NCc1ccccc1C(=O)NC1(c2ccc3ccccc3c2)CC1 [Example 39]
IC50 [1]: 0.1 to 1 µM

C[C@@H](C#Cc1nccs1)NC(=O)C(=O)NCc1ccccc1C(=O)NC1(c2cccc3c2ccn3C)CC1 [Example 531]
IC50 [1]: < 0.1 µM

Cc1cccc(C)c1NC(=O)/C=C/CNC(=O)C(=O)NCc1ccccc1C(=O)NC1(c2cccc3ccccc23)CC1 [Example 562]
IC50 [1]: > 10 µM

C#CCNC(=O)C(=O)NCc1ccccc1C(=O)NC1(c2cccc3ccccc23)COC1 [Example 102]
IC50 [1]: > 10 µM

N#Cc1ccc(C#CCNC(=O)C(=O)NCc2ccccc2C(=O)NC2(c3ccc4ccccc4c3)CC2)c(C(F)(F)F)c1 [Example 95]
IC50 [1]: 0.1 to 1 µM

O=C(NCC#Cc1ccc(C(F)(F)F)s1)C(=O)NCc1ccccc1C(=O)NC1(c2ccc3ccccc3c2)CC1 [Example 89]
IC50 [1]: > 10 µM

N#CCNC(=O)C(=O)NCc1ccccc1C(=O)NC1(c2cc(-c3ccccc3)cc(C(F)(F)F)c2)CC1 [Example 468]
IC50 [1]: 0.1 to 1 µM

N#CCNC(=O)C(=O)NCc1ccccc1C(=O)NC1(c2cc(Br)cc3ccccc23)CC1 [Example 44]
IC50 [1]: < 0.1 µM

C[C@@H](NC(=O)c1ocnc1CNC(=O)C(=O)NCC#N)c1cccc2ccccc12 [Example 365]
IC50 [1]: > 10 µM

C=CC(=O)NNC(=O)C(=O)Nc1ccccc1C(=O)N[C@H](C)c1cccc2ccccc12 [Example 27]
IC50 [1]: > 10 µM

N#CN1CC(CNC(=O)C(=O)NCc2ccccc2C(=O)NC2(c3ccc4ccccc4c3)CC2)C1 [Example 430]
IC50 [1]: 0.1 to 1 µM

N#CN1CC[C@H](CNC(=O)C(=O)NCc2ccccc2C(=O)NC2(c3cccc4ccccc34)CC2)C1 [Example 502]
IC50 [1]: 0.1 to 1 µM

C[C@@H](NC(=O)c1ccccc1CNC(=O)C(=O)NCC/C=C/P(=O)(O)O)c1cccc2ccccc12 [Example 13]
IC50 [1]: > 10 µM

N#CCNC(=O)C(=O)NCc1ccccc1C(=O)NC1(c2cc(-c3cn(-c4ccc(F)cc4F)nn3)cc(C(F)(F)F)c2)CC1 [Example 58]
IC50 [1]: > 10 µM
